Holding throughout (assay type): functional
For assay [1], the system named is Onchocerca lienalis. As to the kind of experiment: MMV: Percent motility assay at a compound concentration of 1.25e-5 M. Activity score legend: 3: Active, 2: Moderately active; 1: Inactive, 0: Toxic. To be noted: at 12.5 µM.
Assay [2] deals with Onchocerca lienalis. Nature of the assay: MMV: Percent motility assay at a compound concentration of 3.1e-6 M. Activity score legend: 3: Active, 2: Moderately active; 1: Inactive, 0: Toxic. The conditions noted are these: at 3.1 µM.
Assay [3] deals with Onchocerca lienalis. As to the kind of experiment: MMV: Percent motility assay at a compound concentration of 1.9e-7 M. Activity score legend: 3: Active, 2: Moderately active; 1: Inactive, 0: Toxic. To be noted: at 0.19 µM.
For assay [4], the system named is Onchocerca lienalis. Nature of the assay: MMV: Percent motility assay at a compound concentration of 7.8e-7 M. Activity score legend: 3: Active, 2: Moderately active; 1: Inactive, 0: Toxic. To be noted: at 0.78 µM.

Turning to `COc1ccc(-c2cc3c(nn2)-c2ccccc2C3=O)cc1`, the Motility in the assay on Onchocerca lienalis [1], with Onchocerca lienalis [2], in the assay with Onchocerca lienalis [3] and with Onchocerca lienalis [4] was 100% throughout.

Take `c1ccc(/C2=N/c3ccccc3/N=C(/c3ccccc3)c3ccccc32)cc1`: the Motility with Onchocerca lienalis [1], in the assay with Onchocerca lienalis [2], in the assay with Onchocerca lienalis [3] and with Onchocerca lienalis [4] was 100% throughout.

As to `COc1ccc(C2c3ccc4ccccc4c3Oc3ncn(CCCn4ccnc4)c(=N)c32)cc1OC` (stereo not given), the Motility in the assay with Onchocerca lienalis [1], in the assay on Onchocerca lienalis [2], in the assay on Onchocerca lienalis [3] and with Onchocerca lienalis [4] was 100% in each case.

In the case of `CN(N=O)C1=C(NC2CCCCC2)C(=O)c2ccccc2C1=O`, the Motility with Onchocerca lienalis [1], with Onchocerca lienalis [2], in the assay with Onchocerca lienalis [3] and in the assay on Onchocerca lienalis [4] was 100% in each case.

For `CCOC(=O)C1=C(C)N=c2sc(=Cc3ccccc3O)c(=O)n2C1c1ccc(OC)c2ccccc12` (stereo not given), the Motility in the assay with Onchocerca lienalis [1], with Onchocerca lienalis [2], with Onchocerca lienalis [3] and in the assay on Onchocerca lienalis [4] was 100% each time.

For the compound `COc1ccc(CN2CCCC(C(=O)c3ccc(C(F)(F)F)cc3)C2)c(O)c1` (stereo not given), the Motility with Onchocerca lienalis [1], in the assay on Onchocerca lienalis [2], in the assay on Onchocerca lienalis [3] and in the assay on Onchocerca lienalis [4] was 100% throughout.

As for `O=C(NC1CCCCC1)C(c1cccs1)N(CCc1ccccc1)C(=O)c1ccco1` (stereo not given), the Motility with Onchocerca lienalis [1], with Onchocerca lienalis [2], in the assay with Onchocerca lienalis [3] and with Onchocerca lienalis [4] was 100% throughout.

As to `Cl.c1ccc2c(NCCCCCCNc3c4c(nc5ccccc35)CCCC4)c3c(nc2c1)CCCC3`, the Motility with Onchocerca lienalis [1], in the assay on Onchocerca lienalis [2], with Onchocerca lienalis [3] and in the assay on Onchocerca lienalis [4] was 100% in each case.

Consider `Brc1ccc(Nc2nc3ccccc3nc2Nc2ccc(Br)cc2)cc1`, for which the Motility in the assay with Onchocerca lienalis [1], in the assay on Onchocerca lienalis [2], in the assay with Onchocerca lienalis [3] and with Onchocerca lienalis [4] was 100% each time.

For the compound `Nc1ccc(-c2nc3cc(Cc4ccc5[nH]c(-c6ccc(N)cc6)nc5c4)ccc3[nH]2)cc1`, the Motility with Onchocerca lienalis [1] was 0%; with Onchocerca lienalis [2], 66.66%; with Onchocerca lienalis [3] it was 100%; with Onchocerca lienalis [4] it was 100%.

Consider `CCCCOC(=O)c1ccc(Nc2cc(C)nc3ccc(OC)cc23)cc1`, for which the Motility in the assay with Onchocerca lienalis [1], with Onchocerca lienalis [2], in the assay on Onchocerca lienalis [3] and in the assay with Onchocerca lienalis [4] was 100% each time.

With `Cc1cc(Nc2ccc(OCc3ccccc3)cc2)nc2cc(O)ccc12`, the Motility in the assay on Onchocerca lienalis [1] is recorded as 66.66%; in the assay on Onchocerca lienalis [2], 100%; in the assay with Onchocerca lienalis [3] it was 100%; with Onchocerca lienalis [4], 100%.

`CCN(CC)CCNc1ccnc2cc3ccccc3cc12.O=P(O)(O)O`: the Motility in the assay on Onchocerca lienalis [1], in the assay with Onchocerca lienalis [2], with Onchocerca lienalis [3] and in the assay with Onchocerca lienalis [4] was 100% each time.

As to `N=c1c2ccccc2nnn1-c1cccc(C(F)(F)F)c1`, the Motility in the assay on Onchocerca lienalis [1], in the assay on Onchocerca lienalis [2], in the assay on Onchocerca lienalis [3] and in the assay with Onchocerca lienalis [4] was 100% each time.

Take `COc1cc(-c2nc(-c3ccc(Sc4ccccc4)cc3)c(-c3ccccc3)[nH]2)cc(OC)c1O`: the Motility in the assay with Onchocerca lienalis [1], in the assay on Onchocerca lienalis [2], with Onchocerca lienalis [3] and in the assay with Onchocerca lienalis [4] was 100% each time.

For `COc1ccc(C2NCCc3c2[nH]c2ccccc32)cc1CN1CCN(c2ccc(F)cc2)CC1.Cl` (stereo not given), the Motility in the assay with Onchocerca lienalis [1], in the assay on Onchocerca lienalis [2], with Onchocerca lienalis [3] and in the assay with Onchocerca lienalis [4] was 100% throughout.

With `OC(Cn1nnc2ccccc21)Cn1c2ccc(Br)cc2c2cc(Br)ccc21` (stereo not given), the Motility in the assay on Onchocerca lienalis [1], in the assay with Onchocerca lienalis [2], with Onchocerca lienalis [3] and with Onchocerca lienalis [4] was 100% in each case.

For the compound `CCOc1ccc(-n2cc(-c3ccccc3)c3c(SCc4cc(C)ccc4C)ncnc32)cc1`, the Motility in the assay on Onchocerca lienalis [1], in the assay with Onchocerca lienalis [2], in the assay on Onchocerca lienalis [3] and in the assay with Onchocerca lienalis [4] was 100% throughout.

As to `Cc1ccc(C)c(Cn2c(N3CCC(C(=O)NCc4cccs4)CC3)nc3ccccc32)c1`, the Motility with Onchocerca lienalis [1], in the assay with Onchocerca lienalis [2], in the assay with Onchocerca lienalis [3] and in the assay on Onchocerca lienalis [4] was 100% in each case.

On to `Cc1ccccc1OCCSc1nc2ccc(NC(=O)c3cccs3)cc2s1`, for which the Motility in the assay with Onchocerca lienalis [1], in the assay on Onchocerca lienalis [2], in the assay on Onchocerca lienalis [3] and in the assay with Onchocerca lienalis [4] was 100% each time.

On to `COc1ccc(C2C(C(=O)Nc3cccc(OC)c3)c3ccccc3C(=O)N2C2CCCCC2)cc1` (stereo not given), for which the Motility with Onchocerca lienalis [1], in the assay on Onchocerca lienalis [2], with Onchocerca lienalis [3] and in the assay with Onchocerca lienalis [4] was 100% each time.

As for `c1ccc2c(NCCc3c[nH]c4ccccc34)c3ccccc3nc2c1`, the Motility in the assay with Onchocerca lienalis [1], in the assay with Onchocerca lienalis [2], with Onchocerca lienalis [3] and in the assay with Onchocerca lienalis [4] was 100% each time.

Regarding `CCN(CC)CCCNc1ccnc2cc3ccccc3cc12`, the Motility in the assay on Onchocerca lienalis [1], in the assay with Onchocerca lienalis [2], in the assay with Onchocerca lienalis [3] and with Onchocerca lienalis [4] was 100% throughout.

For `O=C(Nc1ccc(-c2nc3cc4ccccc4cc3[nH]2)cc1)c1cccc(Br)c1`, the Motility in the assay on Onchocerca lienalis [1], in the assay on Onchocerca lienalis [2], with Onchocerca lienalis [3] and in the assay with Onchocerca lienalis [4] was 100% each time.

`Cc1ccc(-c2nc3ccccc3o2)cc1NCc1cc(Cc2ccccc2)ccc1O`: the Motility in the assay with Onchocerca lienalis [1], in the assay with Onchocerca lienalis [2], in the assay on Onchocerca lienalis [3] and in the assay with Onchocerca lienalis [4] was 100% each time.

Regarding `COc1ccc(C(O)(CCC(C)C)C(CN2CCOCC2)c2ccc(Cl)cc2)cc1.Cl` (stereo not given), the Motility with Onchocerca lienalis [1], in the assay on Onchocerca lienalis [2], in the assay on Onchocerca lienalis [3] and with Onchocerca lienalis [4] was 100% throughout.

For the compound `CCCOCc1cc(CN2CCN(c3cccc(Cl)c3)CC2)c(O)c2ncccc12`, the Motility in the assay with Onchocerca lienalis [1], with Onchocerca lienalis [2], with Onchocerca lienalis [3] and with Onchocerca lienalis [4] was 100% each time.

As to `O=C(Cc1ccccc1)NC(c1ccc(Cl)cc1)c1c(O)ccc2ccccc12` (stereo not given), the Motility with Onchocerca lienalis [1], in the assay on Onchocerca lienalis [2], with Onchocerca lienalis [3] and with Onchocerca lienalis [4] was 100% each time.

As for `CCOc1ccc2c(c1)CN(Cc1ccc(Cl)cc1)CO2`, the Motility in the assay with Onchocerca lienalis [1], in the assay with Onchocerca lienalis [2], in the assay with Onchocerca lienalis [3] and in the assay with Onchocerca lienalis [4] was 100% throughout.

For the compound `COc1ccc(C(=O)NC(c2ccccc2Cl)c2cc(Cl)c3cccnc3c2O)cc1` (stereo not given), the Motility with Onchocerca lienalis [1], with Onchocerca lienalis [2], with Onchocerca lienalis [3] and in the assay on Onchocerca lienalis [4] was 100% each time.

As to `Cc1cccc(N2C(=O)C3C(C2=O)C2(c4ccccc4)C(=O)C3(c3ccccc3)C(c3ccc4c(c3)OCO4)=C2c2ccc3c(c2)OCO3)c1` (stereo not given), the Motility in the assay with Onchocerca lienalis [1], in the assay with Onchocerca lienalis [2], with Onchocerca lienalis [3] and in the assay on Onchocerca lienalis [4] was 100% throughout.

Regarding `CCCc1c(C)nc2ccc(Br)cc2c1O`, the Motility in the assay on Onchocerca lienalis [1], in the assay on Onchocerca lienalis [2], with Onchocerca lienalis [3] and with Onchocerca lienalis [4] was 100% throughout.

With `Cc1ccc(F)cc1NC(=O)c1cc(Cl)ccc1Nc1ccccc1`, the Motility in the assay on Onchocerca lienalis [1], with Onchocerca lienalis [2], in the assay on Onchocerca lienalis [3] and in the assay with Onchocerca lienalis [4] was 100% each time.

In the case of `CCCCCCc1cc2cc(-c3nc4ccccc4[nH]3)c(=Nc3ccccc3C)oc2cc1O`, the Motility in the assay on Onchocerca lienalis [1], in the assay on Onchocerca lienalis [2], in the assay with Onchocerca lienalis [3] and in the assay with Onchocerca lienalis [4] was 100% in each case.

With `CCCCCCC(O)(c1ccc(F)cc1)C(CN1CCOCC1)c1ccccc1.Cl` (stereo not given), the Motility in the assay on Onchocerca lienalis [1], in the assay with Onchocerca lienalis [2], in the assay on Onchocerca lienalis [3] and in the assay with Onchocerca lienalis [4] was 100% throughout.

Take `COc1cc(OC)cc(N2C(=O)N(Cc3ccc(C(C)(C)C)cc3)c3ccccc3S2(=O)=O)c1`: the Motility is 33.33% in the assay with Onchocerca lienalis [1], 100% with Onchocerca lienalis [2], 100% in the assay with Onchocerca lienalis [3] and 100% in the assay with Onchocerca lienalis [4].

As to `CCOc1c(Br)cc(C2C(C(=O)OC)=CN(C)C=C2C(=O)OC)cc1OC`, the Motility with Onchocerca lienalis [1], in the assay with Onchocerca lienalis [2], with Onchocerca lienalis [3] and in the assay on Onchocerca lienalis [4] was 100% in each case.

Consider `CN(C)c1ccc(N=Cc2ccc(N3CCOCC3)cc2)cc1`, for which the Motility in the assay on Onchocerca lienalis [1] was 93.33%; in the assay with Onchocerca lienalis [2], 100%; in the assay on Onchocerca lienalis [3], 100%; with Onchocerca lienalis [4], 100%.

For the compound `COc1ccccc1N1C(=N)SC(=Cc2ccc(OCc3ccccc3F)cc2)C1=O`, the Motility with Onchocerca lienalis [1], in the assay with Onchocerca lienalis [2], with Onchocerca lienalis [3] and in the assay with Onchocerca lienalis [4] was 100% throughout.

Regarding `CCOC(=O)c1c[nH]c2c(CC)cccc2c1=O`, the Motility with Onchocerca lienalis [1], in the assay with Onchocerca lienalis [2], in the assay with Onchocerca lienalis [3] and with Onchocerca lienalis [4] was 100% throughout.

Values taken from ChEMBL document CHEMBL3137381, “MMV Box Onchocerca lienalis screening set”.
